Measurements from ChEMBL document CHEMBL1149799, “Bioactive peroxides as potential therapeutic agents” (Eur J Med Chem, 2008).
Values after ≈ are worked out from the molar mass of the structure shown.

Columns and labels:
[1] = test system: PC-3; assay: Cytotoxicity against human PC3 cells; type: functional, cell-based
[2] = Cytotoxicity against human HERP3B cells; type: functional
[3] = Cytotoxicity against human […] cells; type: functional; details: read-out: ED50 (the source's name)
[4] = test system: KB; assay: Cytotoxicity against human KB cells; type: functional, cell-based; details: Homo sapiens; for EC50: KB, read-out: ED50 (the source's name)
[5] = test system: P388; assay: Cytotoxicity against mouse P388 cells; type: functional, cell-based; details: Mus musculus, P388; for EC50: read-out: ED50 (the source's name)
[6] = test system: A549; assay: Cytotoxicity against human A549 cells; type: functional, cell-based; details: Homo sapiens, A549; for EC50: read-out: ED50 (the source's name)
[7] = test system: SK-BR-3; assay: Cytotoxicity against human SKBR3 cells; type: functional, cell-based
[8] = test system: PSN1; assay: Cytotoxicity against human PSN1 cells; type: functional, cell-based
[9] = test system: T98G; assay: Cytotoxicity against human T98G cells; type: functional, cell-based
[10] = Cytotoxicity against human H116 cells; type: functional, cell-based
[11] = test system: EL4; assay: Cytotoxicity against […] cells; type: functional, cell-based; details: Mus musculus
[12] = test system: L1210; assay: Cytotoxicity against mouse L1210 cells; type: functional, cell-based; details: Mus musculus, L1210
[13] = test system: LoVo; assay: Cytotoxicity against human LoVo cells; type: functional
[14] = test system: Candida albicans; assay: Antifungal activity against Candida albicans; type: functional
[15] = Cytotoxicity against human CFUGM; type: functional; details: CFU-GM
[16] = Cytotoxicity against mouse Ehrlich Ascites carcinoma by clonogenic assay; type: functional
[17] = Cytotoxicity against mouse Ehrlich Ascites carcinoma by […] assay; type: functional
[18] = test system: HT-29; assay: Cytotoxicity against human HT29 cells; type: functional, cell-based; details: Homo sapiens, HT-29
[19] = test system: Vesicular stomatitis virus; assay: Antiviral activity against Vesicular stomatitis virus; type: functional, organism-based
[20] = test system: Human alphaherpesvirus 1; assay: Antiviral activity against herpes simplex virus type-1; type: functional, organism-based
[21] = test system: WEHI-164; assay: Cytotoxicity against mouse WEHI164 cells; type: functional, cell-based
[22] = test system: MCF7; assay: Cytotoxicity against human MCF7 cells; type: functional, cell-based
[23] = test system: NCI-H460; assay: Cytotoxicity against human NCI-H460 cells; type: functional, cell-based
[24] = test system: DU-145; assay: Cytotoxicity against human DU145 cells; type: functional, cell-based
[25] = test system: KM-20L2; assay: Cytotoxicity against human KM20L2 cells; type: functional
[26] = test system: BXPC-3; assay: Cytotoxicity against human BXPC3 cells; type: functional
[27] = test system: SF-268; assay: Cytotoxicity against human SF268 cells; type: functional, cell-based
[28] = test system: Plasmodium falciparum; assay: Antimalarial activity against Plasmodium falciparum W2; type: functional, organism-based
[29] = Cytotoxicity against human P833 cells; type: functional, cell-based

Compound: CCOc1ccc(OOc2ccc(OCC)c3cc4c(cc23)[C@]2(C)CCC(=O)c3coc(c32)C4=O)c2cc3c(cc12)[C@@]1(C)CCC(=O)c2coc(c21)C3=O
- Activity [1]: 35
- Activity [2]: 5

Compound: C=C(C)[C@@H](CC)CC[C@@H](C)[C@H]1CC[C@H]2[C@@H]3C=C[C@@]4(OO)C[C@@H](O)CC[C@]4(C)[C@H]3CC[C@@H]21
- EC50 [3]: 0.9 mg/L (≈ 2.09 µM)
- EC50 [4]: 1 mg/L (≈ 2.32 µM)
- EC50 [5]: 0.5 mg/L (≈ 1.16 µM)
- EC50 [6]: 1.1 mg/L (≈ 2.55 µM)

Compound: CC(C)(O)C1=C[C@@]23CCC4C(C)(C)CCC[C@]4(C)[C@H]2C[C@H]1OO3 (some centres undefined)
- IC50 [7]: > 5 mg/L
- IC50 [8]: > 5 mg/L
- IC50 [9]: > 5 mg/L
- IC50 [6]: > 5 mg/L
- IC50 [10]: > 5 mg/L

Compound: CC(CCCC/C=C/CC/C=C\c1ccccc1)C[C@]1(C)C[C@](C)(CC(=O)O)OO1 (some centres undefined) [EPIPLAKINIC ACID C]
- IC50 [11]: 4.6 mg/L (≈ 11.1 µM)
- IC50 [12]: 0.052 mg/L (≈ 0.125 µM)
- MIC [4]: 0.01 mg/L (≈ 0.0241 µM)
- IC50 [5]: 2.5 mg/L (≈ 6.03 µM)
- MIC [13]: 1 mg/L (≈ 2.41 µM)
- IC50 [6]: 2 mg/L (≈ 4.82 µM)

Compound: C=CC(C[C@@H](C)[C@H]1CC[C@H]2[C@@H]3CC=C4C[C@@H](O)CC[C@]4(C)[C@H]3CC[C@]12C)(OO)C(C)C (some centres undefined)
- EC50 [3]: 5.9 mg/L (≈ 13.7 µM)
- EC50 [4]: 1.8 mg/L (≈ 4.18 µM)
- EC50 [5]: 0.3 mg/L (≈ 0.697 µM)
- EC50 [6]: 7.1 mg/L (≈ 16.5 µM)

Compound: CC(CCCCCC/C=C\C=C\c1ccccc1)CC1(C)CC(C)(CC(=O)O)OO1 (single isomer, unassigned)
- MIC [14]: 1.6 mg/L (≈ 3.86 µM)

Compound: C=C1C(=O)O[C@@H]2O[C@@]3(C)CC[C@H]4[C@H](C)CC[C@@H]1[C@@]24OO3
- IC50 [15]: 1.7 µM
- IC50 [16]: 10 µM
- IC50 [17]: 11.3 µM

Compound: C[C@H](C(=O)O)[C@@H]1CC[C@](C)(CC[C@]2(C)[C@H](C)CC[C@@]3(C)C(C)(C)CCC[C@]32O)OO1 [MYCAPEROXIDE A]
- IC50 [18]: 0.5 mg/L (≈ 1.18 µM)
- IC50 [19]: 0.25 mg/L (≈ 0.589 µM)
- IC50 [5]: 0.5 mg/L (≈ 1.18 µM)
- IC50 [20]: 0.25 mg/L (≈ 0.589 µM)
- IC50 [6]: 0.5 mg/L (≈ 1.18 µM)

Compound: CC/C=C/C(CC)C/C(C)=C/[C@]1(CC)C[C@@H](CC)[C@H](CC(=O)OC)OO1 (some centres undefined)
- IC50 [21]: 8.2 mg/L (≈ 22.4 µM)

Compound: CC/C(=C\[C@@]1(CC)C[C@H](CC)[C@H](CC(=O)OC)OO1)[C@H]1O[C@H]1CC [PLAKORSTATIN 1]
- GI50 [22]: >10
- GI50 [23]: >10
- EC50 [5]: 1.1 mg/L (≈ 3.23 µM)
- GI50 [24]: >10
- GI50 [25]: >10
- GI50 [26]: >10
- GI50 [27]: 1.8

Compound: CCC/C=C/[C@]1(CC)C[C@H](CC)[C@H](CC(=O)OC)OO1 [PLAKORTIDE K]
- IC50 [28]: 0.57 mg/L (≈ 2 µM)

Compound: CCC(=O)/C=C/[C@@]1(CC)C[C@H](CC)[C@H](CC(=O)OC)OO1 [PLAKORTOLIDE I(M)]
- IC50 [28]: 0.57 mg/L (≈ 1.91 µM)

Compound: CC(CCCCCC/C=C\C=C\c1ccccc1)C[C@]1(C)C[C@](C)(CC(=O)O)OO1 (some centres undefined)
- MIC [14]: 1.6 mg/L (≈ 3.86 µM)

Compound: C[C@@H]1C[C@@H]([C@H](O)CC2CC(=O)NC(=O)C2)C(=O)[C@@H](C)C1 [CYCLOHEXIMIDE]
- IC50 [7]: 0.05 mg/L (≈ 0.178 µM)
- IC50 [8]: 0.01 mg/L (≈ 0.0355 µM)
- IC50 [9]: 2.5 mg/L (≈ 8.89 µM)
- IC50 [6]: 0.1 mg/L (≈ 0.355 µM)
- IC50 [10]: 0.1 mg/L (≈ 0.355 µM)

Compound: CC/C=C/[C@H](CC)C[C@]1(CC)C=C(CC)[C@H](CC(=O)O)OO1 [HATERUMADIOXIN A]
- IC50 [29]: 0.011 mg/L (≈ 0.0354 µM)

Compound: CC/C(=C\[C@@]1(CC)C[C@H](CC)[C@H](CC(=O)OC)OO1)[C@@H]1O[C@@H]1CC [PLAKORSTATIN 2]
- GI50 [22]: 3.8
- GI50 [23]: >10
- EC50 [5]: 0.91 mg/L (≈ 2.67 µM)
- GI50 [24]: 1.7
- GI50 [25]: 6.7
- GI50 [26]: 6.4
- GI50 [27]: 1.6
